Test results from ChEMBL document CHEMBL1158674, “Jimenezin, a Novel Annonaceous Acetogenin from the Seeds of Rollinia mucosa Containing Adjacent TetrahydrofuranTetrahydropyran Ring Systems ,1” (J Nat Prod, 1998).
Values after ≈ are worked out from the molar mass of the structure shown.

Experiments:
[1] = system: A549; test: Cytotoxicity against human A549 cells after 7 days by MTT assay; format: functional; conditions: A549, 168 h, read-out: ED50 (the source's name)
[2] = system: MCF7; test: Cytotoxicity against human MCF7 cells after 7 days by MTT assay; format: functional; conditions: MCF7, 168 h, read-out: ED50 (the source's name)
[3] = system: HT-29; test: Cytotoxicity against human HT-29 cells after 7 days by MTT assay; format: functional; conditions: HT-29, 168 h, read-out: ED50 (the source's name)
[4] = system: A498; test: Cytotoxicity against human A498 cells after 7 days by MTT assay; format: functional; conditions: A498, 168 h, read-out: ED50 (the source's name)
[5] = system: PC-3; test: Cytotoxicity against human PC3 cells after 7 days by MTT assay; format: functional
[6] = system: MIA PaCa-2; test: Cytotoxicity against human MIAPaCa2 cells after 7 days by MTT assay; format: functional
[7] = system: Artemia; test: Toxicity in brine shrimp; format: organism-based; conditions: in vivo

| Structure (SMILES) | EC50 [1] [µg/mL] | EC50 [2] [µg/mL] | EC50 [3] [µg/mL] | EC50 [4] [µg/mL] | EC50 ([5]; Homo sapiens, PC-3, 168 h, read-out: ED50 (the source's name)) [µg/mL] | EC50 ([6]; Homo sapiens, MIA PaCa-2, 168 h, read-out: ED50 (the source's name)) [µg/mL] | Activity [7] [×10⁻³ ug/ml] | ED50 [5] [×10⁻⁴ ug/ml] | ED50 [6] [×10⁻⁴ ug/ml] |
| --- | --- | --- | --- | --- | --- | --- | --- | --- | --- |
| COc1cccc2c1C(=O)c1c(O)c3c(c(O)c1C2=O)C[C@@](O)(C(=O)CO)C[C@@H]3O[C@H]1C[C@H](N)[C@H](O)[C@H](C)O1 [DOXORUBICIN] | 0.00447 (≈ 0.00822 µM) | 0.0897 (≈ 0.165 µM) | 0.0162 (≈ 0.0298 µM) | 0.0011 (≈ 0.00202 µM) | 0.0213 (≈ 0.0392 µM) | 0.00288 (≈ 0.0053 µM) |  |  |  |
| CCCCCCCCCC[C@@H]1O[C@H]([C@@H]2CC[C@H]([C@H](O)CCCCCCCCCC[C@@H](O)CC3=C[C@H](C)OC3=O)O2)CC[C@H]1O [JIMENEZIN] | 0.0164 (≈ 0.0263 µM) | > 0.1 | 0.00425 (≈ 0.00682 µM) | 0.0494 (≈ 0.0793 µM) |  |  | 5.7 | 2.77 | 1.69 |
